Experimental data taken from publication PMC10866072, “Design, synthesis, molecular modelling and biological evaluation of novel 6-amino-5-cyano-2-thiopyrimidine derivatives as potent anticancer agents against leukemia and apoptotic inducers” (Journal of Enzyme Inhibition and Medicinal Chemistry, 2024).

Key:
CCRF-CEM = format: cell-based; details: Homo sapiens, one dose 10^-5 M, 48 h
HL-60(TB) = format: cell-based; details: Homo sapiens, one dose 10^-5 M, 48 h
K-562 = format: cell-based; details: Homo sapiens, K562, one dose 10^-5 M, 48 h
MOLT-4 = format: cell-based; details: Homo sapiens, one dose 10^-5 M, 48 h, read-out: % growth
RPMI-8226 = format: cell-based; details: Homo sapiens, one dose 10^-5 M, 48 h
SR = format: cell-based; details: Homo sapiens, one dose 10^-5 M, 48 h
A549/ATCC = format: cell-based; details: Homo sapiens, one dose 10^-5 M, 48 h
EKVX = format: cell-based; details: Homo sapiens, one dose 10^-5 M, 48 h
HOP-62 = format: cell-based; details: Homo sapiens, one dose 10^-5 M, 48 h
HOP-92 = format: cell-based; details: Homo sapiens, one dose 10^-5 M, 48 h
NCI-H226 = format: cell-based; details: Homo sapiens, one dose 10^-5 M, 48 h
NCI-H23 = format: cell-based; details: Homo sapiens, one dose 10^-5 M, 48 h, read-out: % growth
NCI-H460 = format: cell-based; details: Homo sapiens, one dose 10^-5 M, 48 h, read-out: % growth
NCI-H522 = format: cell-based; details: Homo sapiens, one dose 10^-5 M, 48 h
COLO 205 = format: cell-based; details: Homo sapiens, one dose 10^-5 M, 48 h
HCC-2998 = format: cell-based; details: Homo sapiens, one dose 10^-5 M, 48 h
HCT-116 = format: cell-based; details: Homo sapiens, one dose 10^-5 M, 48 h, read-out: % growth
HCT-15 = format: cell-based; details: Homo sapiens, one dose 10^-5 M, 48 h, read-out: % growth
HT29 = format: cell-based; details: Homo sapiens, HT-29, one dose 10^-5 M, 48 h
KM12 = format: cell-based; details: Homo sapiens, one dose 10^-5 M, 48 h
SW-620 = format: cell-based; details: Homo sapiens, one dose 10^-5 M, 48 h
SF-268 = format: cell-based; details: Homo sapiens, one dose 10^-5 M, 48 h, read-out: % growth
SF-295 = format: cell-based; details: Homo sapiens, one dose 10^-5 M, 48 h
SF-539 = format: cell-based; details: Homo sapiens, one dose 10^-5 M, 48 h
SNB-19 = format: cell-based; details: Homo sapiens, one dose 10^-5 M, 48 h, read-out: % growth
U251 = format: cell-based; details: Homo sapiens, U-251, one dose 10^-5 M, 48 h
LOX IMVI = format: cell-based; details: Homo sapiens, one dose 10^-5 M, 48 h, read-out: % growth
MALME-3M = format: cell-based; details: Homo sapiens, one dose 10^-5 M, 48 h
M14 = format: cell-based; details: Homo sapiens, one dose 10^-5 M, 48 h
MDA-MB-435 = format: cell-based; details: Homo sapiens, one dose 10^-5 M, 48 h, read-out: % growth
SK-MEL-2 = format: cell-based; details: Homo sapiens, one dose 10^-5 M, 48 h
SK-MEL-28 = format: cell-based; details: Homo sapiens, one dose 10^-5 M, 48 h
SK-MEL-5 = format: cell-based; details: Homo sapiens, one dose 10^-5 M, 48 h, read-out: % growth
UACC-257 = format: cell-based; details: Homo sapiens, one dose 10^-5 M, 48 h
UACC-62 = format: cell-based; details: Homo sapiens, one dose 10^-5 M, 48 h
IGROV1 = format: cell-based; details: Homo sapiens, IGROV-1, one dose 10^-5 M, 48 h, read-out: % growth
OVCAR-3 = format: cell-based; details: Homo sapiens, one dose 10^-5 M, 48 h
OVCAR-4 = format: cell-based; details: Homo sapiens, one dose 10^-5 M, 48 h
OVCAR-5 = format: cell-based; details: Homo sapiens, one dose 10^-5 M, 48 h
OVCAR-8 = format: cell-based; details: Homo sapiens, one dose 10^-5 M, 48 h
NCI/ADR-RES = format: cell-based; details: Homo sapiens, one dose 10^-5 M, 48 h
SK-OV-3 = format: cell-based; details: Homo sapiens, one dose 10^-5 M, 48 h
786-0 = format: cell-based; details: Homo sapiens, one dose 10^-5 M, 48 h
A498 = format: cell-based; details: Homo sapiens, one dose 10^-5 M, 48 h
ACHN = format: cell-based; details: Homo sapiens, one dose 10^-5 M, 48 h
CAKI-1 = format: cell-based; details: Homo sapiens, CAKI-1, 48 h, one dose 10^-5 M, 48 h
RXF 393 = format: cell-based; details: Homo sapiens, RXF 393, 48 h, one dose 10^-5 M, 48 h, read-out: % growth
SN12C = format: cell-based, human; details: Homo sapiens, one dose 10^-5 M, 48 h
TK-10 = format: cell-based; details: Homo sapiens, one dose 10^-5 M, 48 h
UO-31 = format: cell-based; details: Homo sapiens, UO-31, 48 h, one dose 10^-5 M, 48 h
PC-3 = format: cell-based; details: Homo sapiens, one dose 10^-5 M, 48 h
DU-145 = format: cell-based; details: Homo sapiens, one dose 10^-5 M, 48 h
MCF7 = format: cell-based; details: Homo sapiens, one dose 10^-5 M, 48 h, read-out: % growth
MDA-MB-231/ATCC = format: cell-based; details: Homo sapiens, one dose 10^-5 M, 48 h
HS 578T = format: cell-based; details: Homo sapiens; one dose 10^-5 M, 48 h; HS 578T; read-out: % growth
BT-549 = format: cell-based; details: Homo sapiens, one dose 10^-5 M, 48 h
T-47D = format: cell-based; details: Homo sapiens, T47D, one dose 10^-5 M, 48 h, read-out: % growth
MDA-MB-468 = format: cell-based; details: Homo sapiens, one dose 10^-5 M, 48 h
[1] = system: full NCI 60 cell lines panel; details: for activity at 10 µM: Homo sapiens, 60 cell, 48 h, read-out: Mean % growth

N=C(NN=Cc1ccc([N+](=O)[O-])cc1)c1c(N)nc(S)nc1-c1ccc(Cl)cc1Cl [Compound 4o, 4-amino-6–(2,4-dichlorophenyl)-2-mercapto-N'-[(4-nitrophenyl)methylene] pyrimidine-5-carboximidohydrazide]
% cell growth at 10 µM (CCRF-CEM): 106%
% growth at 10 µM (HL-60(TB)): 103%
% growth at 10 µM (K-562): 95%
activity at 10 µM (MOLT-4): 94%
% growth at 10 µM (RPMI-8226): 97.3%
percent cell growth at 10 µM (SR): 76.8%
% growth at 10 µM (A549/ATCC): 101%
% cell growth at 10 µM (EKVX): 98.9%
% growth at 10 µM (HOP-62): 57%
% growth at 10 µM (HOP-92): 2.04%
% growth at 10 µM (NCI-H226): 82.1%
activity at 10 µM (NCI-H23): 90.2%
activity at 10 µM (NCI-H460): 114%
% growth at 10 µM (NCI-H522): 78.5%
% growth at 10 µM (COLO 205): 115%
% growth at 10 µM (HCC-2998): 106%
activity at 10 µM (HCT-116): 85.2%
activity at 10 µM (HCT-15): 103%
% growth at 10 µM (HT29): 116%
% growth at 10 µM (KM12): 108%
% growth at 10 µM (SW-620): 108%
activity at 10 µM (SF-268): 94.9%
% cell growth at 10 µM (SF-295): 52.4%
% growth at 10 µM (SF-539): 74.7%
activity at 10 µM (SNB-19): 74.9%
% growth at 10 µM (U251): 67%
activity at 10 µM (LOX IMVI): 96.5%
% growth at 10 µM (MALME-3M): 73%
% growth at 10 µM (M14): 102%
activity at 10 µM (MDA-MB-435): 108%
% growth at 10 µM (SK-MEL-2): 93.4%
% cell growth at 10 µM (SK-MEL-28): 113%
activity at 10 µM (SK-MEL-5): 104%
percent cell growth at 10 µM (UACC-257): 104%
% growth at 10 µM (UACC-62): 84.7%
activity at 10 µM (IGROV1): 94.9%
% growth at 10 µM (OVCAR-3): 110%
% growth at 10 µM (OVCAR-4): 111%
percent cell growth at 10 µM (OVCAR-5): 111%
% growth of cells at 10 µM (OVCAR-8): 98.4%
cell growth percent at 10 µM (NCI/ADR-RES): 105%
% growth at 10 µM (SK-OV-3): 89.1%
% growth at 10 µM (786-0): 54.1%
% growth at 10 µM (A498): 160%
% growth at 10 µM (ACHN): 88.8%
% growth at 10 µM (CAKI-1): 78.8%
activity at 10 µM (RXF 393): 73%
% growth at 10 µM (SN12C): 96.1%
% cell growth at 10 µM (TK-10): 142%
% cell growth at 10 µM (UO-31): 98.3%
percent cell growth at 10 µM (PC-3): 96.8%
% growth at 10 µM (DU-145): 115%
activity at 10 µM (MCF7): 88.2%
% growth at 10 µM (MDA-MB-231/ATCC): 77.5%
activity at 10 µM (HS 578T): 87.1%
% cell growth at 10 µM (BT-549): 75.7%
activity at 10 µM (T-47D): 95.3%
percent cell growth at 10 µM (MDA-MB-468): 90.8%
activity at 10 µM [1]: 93.5%

COc1ccc(C=NNC(=N)c2c(N)nc(S)nc2-c2ccc(Cl)cc2Cl)cc1 [Compound 4p, 4-amino-6–(2,4-dichlorophenyl)-2-mercapto-N'-[(4-methoxyphenyl)methylene] pyrimidine-5-carboximidohydrazide]
% cell growth at 10 µM (CCRF-CEM): 99.1%
% growth at 10 µM (HL-60(TB)): 96.9%
% growth at 10 µM (K-562): 102%
activity at 10 µM (MOLT-4): 95.7%
% growth at 10 µM (RPMI-8226): 99.4%
percent cell growth at 10 µM (SR): 97.5%
% growth at 10 µM (A549/ATCC): 102%
% cell growth at 10 µM (EKVX): 108%
% growth at 10 µM (HOP-62): 90.2%
% growth at 10 µM (HOP-92): 74.8%
% growth at 10 µM (NCI-H226): 97.2%
activity at 10 µM (NCI-H23): 100%
activity at 10 µM (NCI-H460): 113%
% growth at 10 µM (NCI-H522): 97.5%
% growth at 10 µM (COLO 205): 127%
% growth at 10 µM (HCC-2998): 118%
activity at 10 µM (HCT-116): 99.8%
activity at 10 µM (HCT-15): 106%
% growth at 10 µM (HT29): 106%
% growth at 10 µM (KM12): 104%
% growth at 10 µM (SW-620): 105%
activity at 10 µM (SF-268): 104%
% cell growth at 10 µM (SF-295): 85.8%
% growth at 10 µM (SF-539): 96.8%
activity at 10 µM (SNB-19): 93%
% growth at 10 µM (U251): 103%
activity at 10 µM (LOX IMVI): 103%
% growth at 10 µM (MALME-3M): 89.4%
% growth at 10 µM (M14): 107%
activity at 10 µM (MDA-MB-435): 113%
% growth at 10 µM (SK-MEL-2): 115%
% cell growth at 10 µM (SK-MEL-28): 112%
activity at 10 µM (SK-MEL-5): 105%
percent cell growth at 10 µM (UACC-257): 103%
% growth at 10 µM (UACC-62): 97.2%
activity at 10 µM (IGROV1): 108%
% growth at 10 µM (OVCAR-3): 113%
% growth at 10 µM (OVCAR-4): 122%
percent cell growth at 10 µM (OVCAR-5): 117%
% growth of cells at 10 µM (OVCAR-8): 103%
cell growth percent at 10 µM (NCI/ADR-RES): 114%
% growth at 10 µM (SK-OV-3): 108%
% growth at 10 µM (786-0): 90.2%
% growth at 10 µM (A498): 138%
% growth at 10 µM (ACHN): 110%
% growth at 10 µM (CAKI-1): 97.3%
activity at 10 µM (RXF 393): 94.5%
% growth at 10 µM (SN12C): 108%
% cell growth at 10 µM (TK-10): 143%
% cell growth at 10 µM (UO-31): 97.7%
percent cell growth at 10 µM (PC-3): 98.9%
% growth at 10 µM (DU-145): 110%
activity at 10 µM (MCF7): 91.5%
% growth at 10 µM (MDA-MB-231/ATCC): 90.5%
activity at 10 µM (HS 578T): 105%
% cell growth at 10 µM (BT-549): 95.6%
activity at 10 µM (T-47D): 100%
percent cell growth at 10 µM (MDA-MB-468): 105%
activity at 10 µM [1]: 104%
activity on all 60 cancer cell lines tested (in words) ([1]; one dose): weak activity
